Source: ChEMBL document CHEMBL4152332, “Discovery and synthesis of novel magnolol derivatives with potent anticancer activity in non-small cell lung cancer” (Eur J Med Chem, 2018)
Values after ≈ are worked out from the molar mass of the structure shown.

How the values were obtained:
[1] = system: NCI-H1975; assay: Induction of apoptosis in human NCI-H1975 cells assessed as early apoptotic cells at 5 uM after 48 hrs by annexin V/FITC-propidium iodide staining-based flow cytometric method ( Rvb = 6.09%); assay type: functional
[2] = Antiproliferative activity against human SPC-A1 cells after 72 hrs by MTT assay; assay type: functional, cell-based; settings: SPCA1, 72 h
[3] = system: NCI-H460; assay: Potency index, ratio of IC50 for magnolol to IC50 for test compound for antiproliferative activity against human H460 cells after 72 hrs by MTT assay; assay type: functional
[4] = system: NCI-H1975; assay: Cell cycle arrest in human NCI-H1975 cells assessed as accumulation at G2/M phase at 5 uM after 24 hrs by propidium iodide staining-based flow cytometric analysis (reference value: 20.11%); assay type: functional
[5] = system: NCI-H1975; assay: Cell cycle arrest in human NCI-H1975 cells assessed as accumulation at G0/G1 phase at 20 uM after 24 hrs by propidium iodide staining-based flow cytometric analysis (reference value: 56.11%); assay type: functional
[6] = system: NCI-H1975; assay: Cell cycle arrest in human NCI-H1975 cells assessed as accumulation at S phase at 5 uM after 24 hrs by propidium iodide staining-based flow cytometric analysis (reference value: 22.93%); assay type: functional
[7] = system: NCI-H1975; assay: Induction of apoptosis in human NCI-H1975 cells assessed as early apoptotic cells at 20 uM after 48 hrs by annexin V/FITC-propidium iodide staining-based flow cytometric method ( Rvb = 6.09%); assay type: functional
[8] = system: NCI-H1975; assay: Induction of apoptosis in human NCI-H1975 cells assessed as viable cells at 20 uM after 48 hrs by annexin V/FITC-propidium iodide staining-based flow cytometric method ( Rvb = 82.5%); assay type: functional; settings: NCI-H1975, 48 h, read-out: Activity
[9] = system: NCI-H1975; assay: Cell cycle arrest in human NCI-H1975 cells assessed as accumulation at G0/G1 phase at 5 uM after 24 hrs by propidium iodide staining-based flow cytometric analysis (reference value: 56.11%); assay type: functional
[10] = system: NCI-H1975; assay: Induction of apoptosis in human NCI-H1975 cells assessed as necrotic cells at 20 uM after 48 hrs by annexin V/FITC-propidium iodide staining-based flow cytometric method ( Rvb = 1.01%); assay type: functional
[11] = system: NCI-H460; assay: Potency index, ratio of IC50 for honokiol to IC50 for test compound for antiproliferative activity against human H460 cells after 72 hrs by MTT assay; assay type: functional
[12] = system: HCC827; assay: Potency index, ratio of IC50 for honokiol to IC50 for test compound for antiproliferative activity against human HCC827 cells after 72 hrs by MTT assay; assay type: functional
[13] = system: NCI-H1975; assay: Induction of apoptosis in human NCI-H1975 cells assessed as necrotic cells at 10 uM after 48 hrs by annexin V/FITC-propidium iodide staining-based flow cytometric method ( Rvb = 1.01%); assay type: functional
[14] = system: NCI-H1975; assay: Cell cycle arrest in human NCI-H1975 cells assessed as accumulation at G2/M phase at 20 uM after 24 hrs by propidium iodide staining-based flow cytometric analysis (reference value: 20.11%); assay type: functional
[15] = system: HCC827; assay: Potency index, ratio of IC50 for magnolol to IC50 for test compound for antiproliferative activity against human HCC827 cells after 72 hrs by MTT assay; assay type: functional
[16] = system: NCI-H1975; assay: Induction of apoptosis in human NCI-H1975 cells after 48 hrs by annexin V/FITC-propidium iodide staining-based flow cytometric method; assay type: functional, cell-based
[17] = system: A549; assay: Antiproliferative activity against human A549 cells after 72 hrs by MTT assay; assay type: functional, cell-based; settings: A549, 72 h
[18] = system: NCI-H1975; assay: Cell cycle arrest in human NCI-H1975 cells assessed as accumulation at G0/G1 phase at 10 uM after 24 hrs by propidium iodide staining-based flow cytometric analysis (reference value: 56.11%); assay type: functional
[19] = system: NCI-H1975; assay: Cell cycle arrest in human NCI-H1975 cells assessed as accumulation at S phase at 10 uM after 24 hrs by propidium iodide staining-based flow cytometric analysis (reference value: 22.93%); assay type: functional
[20] = system: NCI-H1975; assay: Induction of apoptosis in human NCI-H1975 cells assessed as viable cells at 5 uM after 48 hrs by annexin V/FITC-propidium iodide staining-based flow cytometric method ( Rvb = 82.5%); assay type: functional; settings: NCI-H1975, 48 h, read-out: Activity
[21] = system: Mus musculus; assay: Toxicity in Balb/c mouse implanted with mouse C26 cells assessed as change in body weight at 100 mg/kg, po qd treated for 10 days and measured every 2 days (RVB = 16.4%); assay type: organism-based; settings: in vivo
[22] = system: NCI-H1650; assay: Antiproliferative activity against human NCI-H1650 cells after 72 hrs by MTT assay; assay type: functional, cell-based; settings: NCI-H1650, 72 h
[23] = system: NCI-H1975; assay: Induction of apoptosis in human NCI-H1975 cells assessed as late apoptotic cells at 10 uM after 48 hrs by annexin V/FITC-propidium iodide staining-based flow cytometric method ( Rvb = 10.4%); assay type: functional
[24] = system: NCI-H1975; assay: Cell cycle arrest in human NCI-H1975 cells assessed as reduction in accumulation at G2/M phase after 24 hrs by propidium iodide staining-based flow cytometric analysis; assay type: functional
[25] = system: HCC827; assay: Antiproliferative activity against human HCC827 cells after 72 hrs by MTT assay; assay type: functional, cell-based; settings: HCC827, 72 h
[26] = system: NCI-H1975; assay: Cell cycle arrest in human NCI-H1975 cells assessed as accumulation at G2/M phase at 10 uM after 24 hrs by propidium iodide staining-based flow cytometric analysis (reference value: 20.11%); assay type: functional
[27] = system: NCI-H358; assay: Antiproliferative activity against human NCI-H358 cells after 72 hrs by MTT assay; assay type: functional, cell-based; settings: NCI-H358, 72 h
[28] = system: NCI-H1975; assay: Induction of apoptosis in human NCI-H1975 cells assessed as late apoptotic cells at 5 uM after 48 hrs by annexin V/FITC-propidium iodide staining-based flow cytometric method ( Rvb = 10.4%); assay type: functional
[29] = system: NCI-H1975; assay: Cell cycle arrest in human NCI-H1975 cells assessed as reduction in accumulation at S phase after 24 hrs by propidium iodide staining-based flow cytometric analysis; assay type: functional
[30] = system: Mus musculus; assay: Toxicity in Balb/c mouse implanted with mouse C26 cells assessed as mouse death at 100 mg/kg, po qd treated for 10 days; assay type: organism-based; settings: in vivo, 240 h
[31] = system: NCI-H1975; assay: Antiproliferative activity against human NCI-H1975 cells after 72 hrs by MTT assay; assay type: functional, cell-based; settings: NCI-H1975, 72 h
[32] = system: NCI-H1975; assay: Induction of apoptosis in human NCI-H1975 cells assessed as early apoptotic cells at 10 uM after 48 hrs by annexin V/FITC-propidium iodide staining-based flow cytometric method ( Rvb = 6.09%); assay type: functional
[33] = system: NCI-H1975; assay: Cell cycle arrest in human NCI-H1975 cells assessed as accumulation at S phase at 20 uM after 24 hrs by propidium iodide staining-based flow cytometric analysis (reference value: 22.93%); assay type: functional
[34] = Antitumor activity against mouse C26 cells implanted in Balb/c mouse assessed as tumor growth inhibition at 100 mg/kg, po qd and measured every 2 days relative to control; assay type: functional; settings: 48 h, read-out: TGI
[35] = system: HUVEC; assay: Antimigratory activity against HUVEC after 24 to 48 hrs by phase contrast/fluorescence microscopic analysis; assay type: functional, cell-based; settings: Homo sapiens
[36] = system: PC-9; assay: Antiproliferative activity against human PC9 cells after 72 hrs by MTT assay; assay type: functional, cell-based; settings: PC-9, 72 h
[37] = system: NCI-H460; assay: Antiproliferative activity against human H460 cells after 72 hrs by MTT assay; assay type: functional, cell-based; settings: NCI-H460, 72 h
[38] = system: NCI-H1975; assay: Induction of apoptosis in human NCI-H1975 cells assessed as viable cells at 10 uM after 48 hrs by annexin V/FITC-propidium iodide staining-based flow cytometric method ( Rvb = 82.5%); assay type: functional; settings: NCI-H1975, 48 h, read-out: Activity
[39] = Apparent aqueous solubility of the compound by HPLC analysis; assay type: physicochemical; settings: aqueous solution
[40] = system: NCI-H441; assay: Antiproliferative activity against human H441 cells after 72 hrs by MTT assay; assay type: functional, cell-based; settings: NCI-H441, 72 h
[41] = system: NCI-H1975; assay: Potency index, ratio of IC50 for magnolol to IC50 for test compound for antiproliferative activity against human NCI-H1975 cells after 72 hrs by MTT assay; assay type: functional
[42] = system: NCI-H1975; assay: Induction of apoptosis in human NCI-H1975 cells assessed as necrotic cells at 5 uM after 48 hrs by annexin V/FITC-propidium iodide staining-based flow cytometric method ( Rvb = 1.01%); assay type: functional
[43] = system: NCI-H1975; assay: Cell cycle arrest in human NCI-H1975 cells assessed as increase in accumulation at G0/G1 phase after 24 hrs by propidium iodide staining-based flow cytometric analysis; assay type: functional
[44] = system: NCI-H1975; assay: Potency index, ratio of IC50 for honokiol to IC50 for test compound for antiproliferative activity against human NCI-H1975 cells after 72 hrs by MTT assay; assay type: functional
[45] = system: NCI-H1975; assay: Induction of apoptosis in human NCI-H1975 cells assessed as late apoptotic cells at 20 uM after 48 hrs by annexin V/FITC-propidium iodide staining-based flow cytometric method ( Rvb = 10.4%); assay type: functional

With `C=CCc1ccc(O)c(-c2cc(CC=C)cc(CN3CCN(CCOC)CC3)c2O)c1` the Activity [1] was 6.13%, the IC50 [2] was 7.27 µM and the “Ratio IC50” value [3] was 8. The Activity [4] was 18.05%, the Activity [5] was 69.91% and the Activity [6] was 17.71%. The Activity [7] was 25.1%, the viability at 20 µM [8] was 22.9% and the Activity [9] was 61.59%. For the same molecule, the Activity [10] was 0.9%, the “Ratio IC50” value [11] was 4 and the “Ratio IC50” value [12] was 4. The Activity [13] was 0.31%, the Activity [14] was 16.86% and the “Ratio IC50” value [15] was 8. The Activity [16] was “Dose-dependent effect”, the IC50 [17] was 7.89 µM and the Activity [18] was 66.25%. For the same molecule, the Activity [19] was 21.85%, the viability at 5 µM [20] was 72.6% and the Activity [21] was 12.4%. For the same molecule, the IC50 [22] was 5.12 µM, the Activity [23] was 22.5% and the Activity [24] was “Dose-dependent effect”. The IC50 [25] was 6.8 µM, the Activity [26] was 11.15% and the IC50 [27] was 7.49 µM. For the same molecule, the Activity [28] was 22.8%, the Activity [29] was “Dose-dependent effect” and the Activity [30] was “Non-Toxic”. It also gave an IC50 [31] of 7.12 µM, an Activity [32] of 8.79% and an Activity [33] of 11.17%. For the same molecule, the inhibition in vivo at 100 mg/kg [34] was 4.14%, the Activity [35] was “Dose-dependent effect” and the IC50 [36] was 13.5 µM. The IC50 [37] was 5.92 µM, the viability at 10 µM [38] was 68.4% and the solubility [39] was 120 µg/mL (≈ 284 µM). For the same molecule, the IC50 [40] was 10.2 µM, the “Ratio IC50” value [41] was 8 and the Activity [42] was 0.47%. For the same molecule, the Activity [43] was “Dose-dependent effect”, the “Ratio IC50” value [44] was 4 and the Activity [45] was 51.1%.

Molecule `C=CCc1ccc(O)c(-c2cc(CC=C)ccc2O)c1` [MAGNOLOL] has an IC50 [2] of 78.2 µM, an IC50 [17] of 57.4 µM and an IC50 [22] of 56.6 µM. The IC50 [25] was over 40 µM, the IC50 [27] was 61.2 µM and the IC50 [31] was over 40 µM. For the same molecule, the IC50 [36] was 69 µM, the IC50 [37] was over 40 µM and the solubility [39] was under 10 µg/mL. For the same molecule, the IC50 [40] was 58.7 µM.

`C=CCc1ccc(O)c(-c2ccc(O)c(CC(O)CO)c2)c1` (centres undefined) showed an IC50 [25] of over 40 µM, an IC50 [31] of over 40 µM and an IC50 [37] of over 40 µM.

`C=CCc1cc(-c2cc(CC=C)cc([C@@H]3C=C(C)CC[C@H]3C(C)C)c2O)c(O)c([C@@H]2C=C(C)CC[C@H]2C(C)C)c1` showed an IC50 [25] of over 40 µM, an IC50 [31] of over 40 µM and an IC50 [37] of over 40 µM.

In the case of `C=CCc1ccc(O)c(-c2cc(CC=C)cc(CN3CCCC(NC(=O)OC(C)(C)C)C3)c2O)c1` (centres undefined), the IC50 [25] is reported as 15.5 µM, the IC50 [31] is reported as 13.9 µM and the IC50 [37] is reported as 16.4 µM.
